From PubChem BioAssay AID2060617 (Molecular Pharmacology Branch, DTP, NCI, 2025)
“And” between values parts separate entries of the source, which are not always exact repeats. Identical values can stand only once.

Test system: 485368-065-R4-J2-PDC spheroids with HUVEC/MSC, viability
Assay: Anticancer human tumor 485368-065-R4-J2-PDC patient-derived pancreatic carcinoma cell line growth inhibition [CLK]
Settings: for viability, T/C: stronger effect = lower value; active = viability on the fitted dose curve at most 10% of control; inactive = the rest
Summary of the method: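 Multi-cell-type spheroids combined patient-derived tumor cells with HUVEC endothelial cells and human mesenchymal stem cells. Paired agents were dosed in half-log steps down from about clinical Cmax, or from 10 microM where Cmax was unknown.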

[1] = curve of first compound, second compound 0.0316 µM
[2] = curve of first compound, second compound 0.1 µM
[3] = curve of first compound, second compound 0.316 µM
[4] = curve of first compound, second compound 1 µM
[5] = curve of first compound, second compound 3.16 µM
[6] = curve of first compound, second compound 10 µM
[7] = second compound 0.0316 µM, first compound 0.0316 µM
[8] = second compound 0.0316 µM, first compound 0.1 µM
[9] = second compound 0.0316 µM, first compound 0.316 µM
[10] = second compound 0.0316 µM, first compound 1 µM
[11] = second compound 0.0316 µM, first compound 3.16 µM
[12] = second compound 0.0316 µM, first compound 10 µM
[13] = second compound 0.1 µM, first compound 0.0316 µM
[14] = second compound 0.1 µM, first compound 0.1 µM
[15] = second compound 0.1 µM, first compound 0.316 µM
[16] = second compound 0.1 µM, first compound 1 µM
[17] = second compound 0.1 µM, first compound 3.16 µM
[18] = second compound 0.1 µM, first compound 10 µM
[19] = second compound 0.316 µM, first compound 0.0316 µM
[20] = second compound 0.316 µM, first compound 0.1 µM
[21] = second compound 0.316 µM, first compound 0.316 µM
[22] = second compound 0.316 µM, first compound 1 µM
[23] = second compound 0.316 µM, first compound 3.16 µM
[24] = second compound 0.316 µM, first compound 10 µM
[25] = second compound 1 µM, first compound 0.0316 µM
[26] = second compound 1 µM, first compound 0.1 µM
[27] = second compound 1 µM, first compound 0.316 µM
[28] = second compound 1 µM, first compound 1 µM
[29] = second compound 1 µM, first compound 3.16 µM
[30] = second compound 1 µM, first compound 10 µM
[31] = second compound 3.16 µM, first compound 0.0316 µM
[32] = second compound 3.16 µM, first compound 0.1 µM
[33] = second compound 3.16 µM, first compound 0.316 µM
[34] = second compound 3.16 µM, first compound 1 µM
[35] = second compound 3.16 µM, first compound 3.16 µM
[36] = second compound 3.16 µM, first compound 10 µM
[37] = second compound 10 µM, first compound 0.0316 µM
[38] = second compound 10 µM, first compound 0.1 µM
[39] = second compound 10 µM, first compound 0.316 µM
[40] = second compound 10 µM, first compound 1 µM
[41] = second compound 10 µM, first compound 3.16 µM
[42] = second compound 10 µM, first compound 10 µM
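Note: spheroids exposed to compounds for seven days.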
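Throughout, for viability, T/C: 100% = DMSO vehicle control wells.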

CC(=O)O[C@H]1C(=O)[C@@]2(C)[C@H]([C@H](OC(=O)c3ccccc3)[C@]3(O)C[C@H](OC(=O)[C@H](O)[C@@H](NC(=O)c4ccccc4)c4ccccc4)C(C)=C1C3(C)C)[C@]1(OC(C)=O)CO[C@@H]1C[C@@H]2O
inactive: viability, T/C (compound 0.0316 µM) 58.2% and 59.8% | viability, T/C (compound 0.1 µM) 50.1% and 56.1% | viability, T/C (compound 0.316 µM) 49% and 52.2% | viability, T/C (compound 1 µM) 48.5% and 43.6% | viability, T/C (compound 3.16 µM) 49.9% and 52.5% | viability, T/C (compound 10 µM) 48.8% and 65.5%

C=C(F)C(=O)N1CCN(c2nc(OCC3CCCN3C)nc3c2CCN(c2cccc4cccc(Cl)c24)C3)CC1CC#N (centres undefined) + CN1CCN(c2cc(C(=O)Nc3cc4cc(-c5cnn(C)c5)ccc4cn3)ccn2)CC1
inactive: viability, T/C [7] 114% | viability, T/C [8] 116% | viability, T/C [9] 108% | viability, T/C [10] 114% | viability, T/C [11] 105% | viability, T/C [12] 110% | viability, T/C [13] 109% | viability, T/C [14] 105% | viability, T/C [15] 106% | viability, T/C [16] 109% | viability, T/C [17] 105% | viability, T/C [18] 95.3% | viability, T/C [19] 89.7% | viability, T/C [20] 85.6% | viability, T/C [21] 89.4% | viability, T/C [22] 77.8% | viability, T/C [23] 77.4% | viability, T/C [24] 57.4%
< 0.0316 µM: IC50 [4] | IC50 [5] | IC50 [6]
> 10 µM: IC50 [1] | IC50 [2] | IC50 [3]
active: viability, T/C [25] 1.02% | viability, T/C [26] 1.73% | viability, T/C [27] 2.07% | viability, T/C [28] 1.58% | viability, T/C [29] 1.92% | viability, T/C [30] 3.55% | viability, T/C [31] 1.58% | viability, T/C [32] 1.31% | viability, T/C [33] 1.13% | viability, T/C [34] 2.84% | viability, T/C [35] 1.64% | viability, T/C [36] 2% | viability, T/C [37] 1.69% | viability, T/C [38] 2.28% | viability, T/C [39] 1.56% | viability, T/C [40] 2.01% | viability, T/C [41] 3.1% | viability, T/C [42] 1.56%

CC(Nc1ccc2c(c1)OCCn1cc(N3C(=O)OCC3C(F)F)nc1-2)C(N)=O (centres undefined)
inactive: viability, T/C (compound 0.0316 µM) 95.1% and 99.5% | viability, T/C (compound 0.1 µM) 102% and 117% | viability, T/C (compound 0.316 µM) 116% and 105% | viability, T/C (compound 1 µM) 100% and 102% | viability, T/C (compound 3.16 µM) 91.4% and 89.5% | viability, T/C (compound 10 µM) 86.5% and 79.1%
> 10 µM: IC50 (curve of compound)

Nc1ccn(C2OC(CO)C(O)C2(F)F)c(=O)n1 (centres undefined) + CN1CCN(c2cc(C(=O)Nc3cc4cc(-c5cnn(C)c5)ccc4cn3)ccn2)CC1
< 0.0316 µM: IC50 [1] | IC50 [2] | IC50 [3] | IC50 [4] | IC50 [5] | IC50 [6]
active: viability, T/C [25] 0.77% | viability, T/C [26] 2.15% | viability, T/C [27] 3.11% | viability, T/C [28] 1.96% | viability, T/C [29] 2.6% | viability, T/C [30] 3.01% | viability, T/C [31] 1.85% | viability, T/C [32] 1.43% | viability, T/C [33] 2.71% | viability, T/C [34] 4.76% | viability, T/C [35] 2.68% | viability, T/C [36] 5.26% | viability, T/C [37] 1.32% | viability, T/C [38] 2.34% | viability, T/C [39] 1.93% | viability, T/C [40] 2.61% | viability, T/C [41] 2.98% | viability, T/C [42] 2.55%
inactive: viability, T/C [7] 48.5% | viability, T/C [8] 32.7% | viability, T/C [9] 24.1% | viability, T/C [10] 24.2% | viability, T/C [11] 25.3% | viability, T/C [12] 21.6% | viability, T/C [13] 39.2% | viability, T/C [14] 21.1% | viability, T/C [15] 19.5% | viability, T/C [16] 16.6% | viability, T/C [17] 16.6% | viability, T/C [18] 13.8% | viability, T/C [19] 28.5% | viability, T/C [20] 16.6% | viability, T/C [21] 14.1% | viability, T/C [22] 14.9% | viability, T/C [23] 14.1% | viability, T/C [24] 12.8%

CCc1c2c(nc3ccc(O)cc13)-c1cc3c(c(=O)n1C2)COC(=O)[C@]3(O)CC + CNC(=O)c1ccc(Nc2nc(OC3CCCC3)c3c(-c4ccc5nc(C)oc5c4)c[nH]c3n2)c(OC)c1
< 0.00316 µM: IC50 [2] | IC50 [3] | IC50 [4] | IC50 [5] | IC50 [6]
0.00369 µM: IC50 [1]
inactive: viability, T/C (second compound 0.0316 µM, first compound 0.00316 µM) 53.6% | viability, T/C (second compound 0.0316 µM, first compound 0.01 µM) 27% | viability, T/C [7] 13.1% | viability, T/C [8] 7.46% | viability, T/C [9] 10.5% | viability, T/C [10] 16% | viability, T/C (second compound 0.1 µM, first compound 0.00316 µM) 46.3% | viability, T/C (second compound 0.1 µM, first compound 0.01 µM) 27% | viability, T/C [13] 12.6% | viability, T/C [14] 7.47% | viability, T/C [15] 8.97% | viability, T/C [16] 17% | viability, T/C (second compound 0.316 µM, first compound 0.00316 µM) 41.9% | viability, T/C (second compound 0.316 µM, first compound 0.01 µM) 20.4% | viability, T/C [19] 11.7% | viability, T/C [20] 7.63% | viability, T/C [21] 9% | viability, T/C [22] 16.2% | viability, T/C (second compound 1 µM, first compound 0.00316 µM) 25.8% | viability, T/C (second compound 1 µM, first compound 0.01 µM) 13.5% | viability, T/C [25] 8.98% | viability, T/C [26] 6.66% | viability, T/C [27] 10.7% | viability, T/C [28] 18.1% | viability, T/C (second compound 3.16 µM, first compound 0.00316 µM) 20.9% | viability, T/C (second compound 3.16 µM, first compound 0.01 µM) 11.3% | viability, T/C [31] 9.77% | viability, T/C [32] 7.07% | viability, T/C [33] 11.5% | viability, T/C [34] 18.9% | viability, T/C (second compound 10 µM, first compound 0.00316 µM) 19.4% | viability, T/C (second compound 10 µM, first compound 0.01 µM) 13.9% | viability, T/C [37] 7.33% | viability, T/C [38] 7.37% | viability, T/C [39] 15.9% | viability, T/C [40] 20.8%
